# From article PMC8453848, “Effect of GLPG1205, a GPR84 Modulator, on CYP2C9, CYP2C19, and CYP1A2 Enzymes: In Vitro and Phase 1 Studies” (Clinical Pharmacology in Drug Development, 2021)
# Legend:
# Assay in all cases: in vitro
# CYP1A2 [1] = conditions: human
# Method: (§1) GLPG1205 was incubated with monolayer cultures of fresh human hepatocytes from 3 individual donors for 24 hours (messenger ribonucleic acid [mRNA] analysis) or 48 hours (enzyme activity) at 6 different concentrations: 0.5, 1, 5, 10, 50, and 100 μM (0.19, 0.38, 1.89, 3.78, 18.9, and 37.8 μg/mL, respectively). All incubations contained 0.4% dimethylsulfoxide (DMSO). Incubation with 50 μM omeprazole containing 0.1% DMSO was used as a positive control. Incubations with 0.1% and 0.4% DMSO alone were used as negative controls.
# Following a 48‐hour incubation period, an enzymatic assay assessed phenacetin O‐deethylase (a CYP1A2 substrate) activity by measuring the CYP1A2‐dependent metabolite acetaminophen in supernatants. Acetaminophen was quantified using liquid chromatography coupled with tandem mass spectrometry (LC‐MS/MS).
# (§2) A concentration‐dependent increase in mRNA of <100% was considered a negative finding when the increase in mRNA was less than 20% of the response of the positive control.
# (§3) Incubation for CYP1A2 Induction Experiment The incubations for enzyme activity measurements were performed with cell monolayers in 96-well plates and the incubations for mRNA measurements were performed with cell monolayers in 24-well plates.^3
# GLPG1205 was incubated with monolayer culture of human fresh hepatocytes from 3 individual donors for 24 or 48 hours, for messenger ribonucleic acid (mRNA) analysis and enzyme activity, respectively, at 6 different concentrations (n = 3): 0.1, 0.5, 1, 5, 10 and 50 µM (0.038, 0.19, 0.38, 1.89, 3.78 and 18.9 µg/mL, respectively). […] Incubation with 50 µM omeprazole containing 0.1% DMSO was used as a positive control. Incubations with 0.1% and 0.4% DMSO alone were used as negative controls. The CMI was William’s E medium with hepatocytes induction additives. Cells were cultured at 37°C in a humidified carbon dioxide/air (5%/95%) atmosphere. Culture media were renewed daily in all wells.
# Enzymatic Assay At the end of the 48-hour incubation period, CYP1A2 enzyme activity was measured in intact cells by incubating with phenacetin, a probe substrate. Cells were first washed with minimum essential medium (MEM) devoid of phenol red to remove remaining test compounds or reference inducers and were then incubated for 2 hours at 37°C with 200 µM phenacetin in MEM devoid of phenol red and containing 0.1% DMSO. Assessment of phenacetin O-deethylase activity in supernatants was carried out by measuring the CYP1A2-dependent metabolite acetaminophen. Cell protein content was also determined; protein content was measured according to the bicinchoninic acid method^4 and calculated using a bovine serum albumin standard curve.
# A 2-fold dilution of the specimens in a solution of 1 µM D4-acetaminophen in water with 0.1% formic acid was performed and 20 µL were injected into the LC-MS/MS system. The mobile phase consisted of ammonium acetate 5 mM in water (A) and formic acid 0.3% in acetonitrile/methanol, 50/50, v/v. The following gradient was applied with a 1.5 mL/min flow rate and an oven temperature of 40°C: 98% A from 0 minutes; 70% A from 2.5 minutes; 1% A from 2.6 minutes; 1% A from 3.2 minutes; 98% A from 3.25 minutes; 98% A from 4.5 minutes. In this condition, the retention time of acetaminophen was approximately 2.33 minutes. Controls were performed by injecting calibration standards at the beginning and end of each run. […]
# CYP1A2 [2] = conditions: human; remark: listed apart in the source
# Method: as §1
# (§4) Following a 24‐hour incubation, CYP1A2 mRNA was quantified using real‐time quantitative reverse transcription polymerase chain reaction.
# as §2, §3
# (§5) GLPG1205 was incubated with monolayer culture of human fresh hepatocytes from 3 individual donors for 24 or 48 hours, for messenger ribonucleic acid (mRNA) analysis and enzyme activity, respectively, at 6 different concentrations (n = 3): 0.1, 0.5, 1, 5, 10 and 50 µM (0.038, 0.19, 0.38, 1.89, 3.78 and 18.9 µg/mL, respectively). […]
# (§6) mRNA Analysis At the end of the 24-hour incubation period, the incubation medium was removed and the cell monolayers were washed twice with 500 µL phosphate buffered saline. […] Total RNA and RNA quality were assessed by measuring 260/280 nm and 260/230 nm absorbance ratios. RNA concentrations were used to normalize the quantity of RNA used for the reverse transcriptase assay. […]
# (§7) Quantitative real-time reverse transcription polymerase chain reaction (qRT-PCR) was performed using SYBRGreen® validated primers for CYP1A2.^3 The housekeeping gene glyceraldehyde 3-phosphate dehydrogenase (GAPDH) was analyzed in parallel as the control gene. […]
# (§8) The fold induction (FI) was determined as: […]
# CYP1A2 mRNA = conditions: human, hepatocytes, 24 h
# Method: as §1, §4, §2, §3, §5, §6, §7, §8
# [3] = Phenacetin O-deethylase activity, fold induction
smiles,measurement,setting,value
"O=c1nc(OC[C@@H]2COCCO2)cc2n1CCc1cc(C#CC3CC3)ccc1-2 [GLPG1205, 9‐cyclopropylethynyl‐2‐[(S)‐1‐(1,4)dioxan‐2‐ylmethoxy]‐6,7‐dihydropyrimido[6,1‐a]isoquinolin‐4‐one]","Phenacetin O-deethylase activity, fold induction","CYP1A2 [1]; 48 h, 50 µM",0.367 ± 0.021 fold
same,"fold induction at 48 h, 0.1 µM",CYP1A2 [1]; [3],1.64 ± 0.256
same,"fold induction at 48 h, 50 µM",CYP1A2 [1]; [3],0.335 ± 0.033
same,increases in CYP1A2 activity compared with the negative control (0.4% DMSO),"CYP1A2 [1]; hepatocytes, 48 h",≤ 2 fold
same,"increases in CYP1A2 activity, % of the positive control (omeprazole)","CYP1A2 [1]; hepatocytes, 48 h",lower than 40%
same,"fold induction at 24 h, 1 µM","CYP1A2 [2]; CYP1A2 mRNA, fold induction, mean (SD)",6.12 ± 0.65
same,"fold induction at 24 h, 1 µM",CYP1A2 [2]; maximum fold induction of CYP1A2 mRNA,6
same,increase in CYP1A2 mRNA expression compared with the vehicle control,CYP1A2 mRNA,greater than 100%
